According to US11560372B2, “Heterocyclic compounds useful as modulators of acetylcholine receptors” (TAKEDA PHARMACEUTICAL COMPANY LIMITED, priority 2017, dated 2023):

The compounds below were run against T1, MDR1 (Homo sapiens, UniProt P08183) (assay: MDR1 membrane permeability test). Details: pH 7.4, efflux ratio (ER), Papp B to A / A to B, human MDR1-expressing LLC-PK1 cells, read-out: MDR1 substrate screening 1 μM (MDRSUB1)/Ratio (NUMBER).
T1 construct: expressed in transfected cells
Format: in vitro ADME
Protocol: MDR1 Membrane Permeability Test
When MDR1 is expressed in excess in LLC-PK1 cell, which is a polar cell, MDR1 is localized in apical membrane (A), thus promoting transcellular transport from the basement membrane side (B) toward direction A. When a ratio to the transcellular transport in the opposite direction is taken and a ratio to a control cell in which a mock vector has been introduced is further taken, an efflux ratio of MDR1 to simple diffusion (corrected efflux ratio) is calculated. Similarly, when a brain/plasma concentration ratio in Mdr1(−/−) mouse is divided by a brain/plasma concentration ratio in wild-type mouse, an efflux ratio of Mdr1 to simple diffusion in BBB (Kp, brain ratio, higher value means lower central nervous system permeability) is calculated. Adachi Y. et al. (Reference 1) has reported a positive correlation between corrected efflux ratio and Kp, brain ratio (FIG. 5(C)), and efflux ratio in MDR1 expressing cell and Kp, brain ratio (FIG. 5(B)).
To confirm the central nervous system permeability of the compounds of the present invention, a MDR1 membrane permeability test was performed by the following method.
Human MDR1-expressing LLC-PK1 cells were cultured according to the report of Takeuchi et al. (Reference 2). Human MDR1-expressing LLC-PK1 cells were cultured in 10% fetal bovine serum (Invitrogen), 500 μg/ml G418 (Invitrogen), 150 ng/ml colchicine-containing M199 medium (Invitrogen) under 5% CO2 conditions at 37° C.
Transcellular transport was performed according to the report of Sugimoto et al. (Reference 3). The cells were cultured for 3 days on HTS Transwell (registered trademark) 96 well permeable support (pore size 0.4 μm, 0.143 cm^2 surface area, Corning Life Sciences) having polyethylene terephthalate membrane on which the cells had been seeded at 3.45×10^4 cells/well. After preincubation in M199 medium (containing 10 mmol/L HEPES, 1% BSA, pH 7.4) for 30 min, a drug solution (10 μmol/L digoxin, 200 μmol/L LY, […]) dissolved in M199 medium was added to the apical side or basolateral side of the Transwell by 75 or 250 μL each and the cells were cultured under 5% CO2 conditions at 37° C. After 1 hr, the sample was collected from the side opposite to the side where the drug solution was added, and the concentration of the test compound was measured by LC-MS/MS. As an internal standard substance, 100 ng/mL alprenolol and diclofenac were used. The analysis conditions were as follows.
Papp, A to B and Papp, B to A (apparent permeability) were calculated from the formula (1), and the efflux ratio (ER) was calculated from the formula (2).

T1 sequence (P08183 whole entry): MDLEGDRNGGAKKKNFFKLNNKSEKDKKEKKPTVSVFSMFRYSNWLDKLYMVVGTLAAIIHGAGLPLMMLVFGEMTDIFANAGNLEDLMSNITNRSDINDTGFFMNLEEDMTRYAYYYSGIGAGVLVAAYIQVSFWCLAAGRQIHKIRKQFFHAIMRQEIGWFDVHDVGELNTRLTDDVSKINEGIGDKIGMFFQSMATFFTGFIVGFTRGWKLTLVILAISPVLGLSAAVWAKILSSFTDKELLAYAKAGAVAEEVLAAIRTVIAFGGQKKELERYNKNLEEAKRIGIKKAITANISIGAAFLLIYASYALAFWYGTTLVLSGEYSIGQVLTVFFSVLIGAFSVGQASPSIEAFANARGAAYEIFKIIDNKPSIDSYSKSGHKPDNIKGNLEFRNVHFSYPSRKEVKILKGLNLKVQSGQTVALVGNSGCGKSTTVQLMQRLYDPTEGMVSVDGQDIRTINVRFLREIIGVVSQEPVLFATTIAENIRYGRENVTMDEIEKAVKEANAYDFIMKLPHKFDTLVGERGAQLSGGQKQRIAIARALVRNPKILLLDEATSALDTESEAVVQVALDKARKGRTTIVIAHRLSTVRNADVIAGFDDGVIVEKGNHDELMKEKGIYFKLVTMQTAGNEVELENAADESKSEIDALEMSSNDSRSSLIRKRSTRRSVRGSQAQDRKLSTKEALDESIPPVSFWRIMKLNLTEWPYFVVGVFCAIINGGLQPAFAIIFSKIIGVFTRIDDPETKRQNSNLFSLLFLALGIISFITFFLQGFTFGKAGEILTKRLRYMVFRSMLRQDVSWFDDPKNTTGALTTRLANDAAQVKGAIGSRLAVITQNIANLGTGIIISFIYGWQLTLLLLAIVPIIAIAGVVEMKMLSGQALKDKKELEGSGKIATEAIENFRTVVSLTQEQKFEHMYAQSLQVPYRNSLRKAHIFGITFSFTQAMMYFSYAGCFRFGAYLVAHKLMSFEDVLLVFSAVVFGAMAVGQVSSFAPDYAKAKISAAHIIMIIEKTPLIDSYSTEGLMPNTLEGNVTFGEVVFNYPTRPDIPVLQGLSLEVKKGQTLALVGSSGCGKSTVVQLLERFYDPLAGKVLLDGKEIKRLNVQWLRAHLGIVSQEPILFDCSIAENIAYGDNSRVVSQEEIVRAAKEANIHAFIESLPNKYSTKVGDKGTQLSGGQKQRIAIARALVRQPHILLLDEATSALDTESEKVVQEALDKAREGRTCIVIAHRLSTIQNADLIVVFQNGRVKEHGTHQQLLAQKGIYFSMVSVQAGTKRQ

efflux ratio at 1 hr, 1 μM | Compound
0.83 | Cc1c(Cc2ccc(-n3cccn3)cc2)cc2c(=O)n([C@H]3CCOC[C@@H]3O)cnc2c1C [Comparative Example 1, 3-((3R,4S)-3-hydroxytetrahydro-2H-pyran-4-yl)-7,8-dimethyl-6-(4-(1H-pyrazol-1-yl)benzyl)quinazolin-4(3H)-one, reference compound]
6.8 | Cc1ccc(Cc2cc3c(=O)n([C@H]4CCOC[C@@H]4O)cnc3c(Cl)c2C)cn1 [Example 16, 1,5-anhydro-3-(8-chloro-7-methyl-6-((6-methylpyridin-3-yl)methyl)-4-oxoquinazolin-3(4H)-yl)-2,3-dideoxy-L-threo-pentitol]
20 | CNC(=O)c1ccc(Cc2cc3c(=O)n([C@H]4CCOC[C@@H]4O)cnc3c(F)c2C)cc1F [Example 21, 1,5-anhydro-2,3-dideoxy-3-(8-fluoro-6-(3-fluoro-4-(methylcarbamoyl)benzyl)-7-methyl-4-oxoquinazolin-3(4H)-yl)-L-threo-pentitol]
12 | COC(C)(C)CNC(=O)c1ccc(Cc2cc3c(=O)n([C@H]4CCOC[C@@H]4O)cnc3c(C)c2C)cc1 [Example 31, 1,5-anhydro-2,3-dideoxy-3-(6-(4-((2-methoxy-2-methylpropyl)carbamoyl)benzyl)-7,8-dimethyl-4-oxoquinazolin-3 (4H)-yl)-L-threo-pentitol]
26 | Cc1c(Cc2ccc(C(=O)NC3CCOCC3)cc2)cc2c(=O)n([C@H]3CCOC[C@@H]3O)cnc2c1C [Example 32, 1,5-anhydro-2,3-dideoxy-3-(7,8-dimethyl-4-oxo-6-(4-(tetrahydro-2H-pyran-4-ylcarbamoyl)benzyl)quinazolin-3 (4H)-yl)-L-threo-pentitol]
11 | Cc1c(Cc2ccc(C(=O)NC(C)C)cc2)cc2c(=O)n([C@H]3CCOC[C@@H]3O)cnc2c1C [Example 36, 1,5-anhydro-2,3-dideoxy-3-(6-(4-(isopropylcarbamoyl)benzyl)-7,8-dimethyl-4-oxoquinazolin-3 (4H)-yl)-L-threo-pentitol]
12 | Cc1c(Cc2ccc(C(=O)NCCF)cc2)cc2c(=O)n([C@H]3CCOC[C@@H]3O)cnc2c1C [Example 37, 1,5-anhydro-2,3-dideoxy-3-(6-(4-((2-fluoroethyl)carbamoyl)benzyl)-7,8-dimethyl-4-oxoquinazolin-3 (4H)-yl)-L-threo-pentitol]

Further lines, the compound ahead of its results:

Compound | efflux ratio at 1 hr, 1 μM
Cc1c(Cc2ccc(-n3cccn3)cc2)cc2c(=O)n([C@H]3CCOC[C@@H]3O)nnc2c1C [Comparative Example 2, 3-((3R,4S)-3-hydroxytetrahydro-2H-pyran-4-yl)-7,8-dimethyl-6-(4-(1H-pyrazol-1-yl)benzyl)-1,2,3-benzotriazin-4(3H)-one, reference compound] | 1.3
Cc1ccc(Cc2cc3c(=O)n([C@H]4CCOC[C@@H]4O)cnc3c(C)c2C)cn1 [Example 7, 1,5-anhydro-2,3-dideoxy-3-(7,8-dimethyl-6-((6-methylpyridin-3-yl)methyl)-4-oxoquinazolin-3(4H)-yl)-L-threo-pentitol] | 3.5
CNC(=O)c1ccc(Cc2cc3c(=O)n([C@H]4CCOC[C@@H]4O)cnc3c(Cl)c2C)cc1F [Example 10, 1,5-anhydro-3-(8-chloro-6-(3-fluoro-4-(methylcarbamoyl)benzyl)-7-methyl-4-oxoquinazolin-3(4H)-yl)-2,3-dideoxy-L-threo-pentitol] | 15
Cc1nn(C)cc1-c1ccc(Cc2cc3c(=O)n([C@H]4CCOC[C@@H]4O)cnc3c(Cl)c2C)cn1 [Example 12, 1,5-anhydro-3-(8-chloro-6-((6-(1,3-dimethyl-1H-pyrazol-4-yl)pyridin-3-yl)methyl)-7-methyl-4-oxoquinazolin-3(4H)-yl)-2,3-dideoxy-L-threo-pentitol] | 17
Cc1c(Cc2ccc(-c3cn(C)nn3)nc2)cc2c(=O)n([C@H]3CCOC[C@@H]3O)cnc2c1Cl [Example 14, 1,5-anhydro-3-(8-chloro-7-methyl-6-((6-(1-methyl-1H-1,2,3-triazol-4-yl)pyridin-3-yl)methyl)-4-oxoquinazolin-3(4H)-yl)-2,3-dideoxy-L-threo-pentitol] | 22
Cc1c(Cc2ccc(-c3cn(C)nn3)cc2)cc2c(=O)n([C@H]3CCOC[C@@H]3O)cnc2c1Cl [Example 15, 1,5-anhydro-3-(8-chloro-7-methyl-6-(4-(1-methyl-1H-1,2,3-triazol-4-yl)benzyl)-4-oxoquinazolin-3(4H)-yl)-2,3-dideoxy-L-threo-pentitol] | 9.7
Cc1c(Cc2ccc(-c3cn(C)nn3)cc2)cc2c(=O)n([C@H]3CCOC[C@@H]3O)nnc2c1Cl [Example 20, 1,5-anhydro-3-(8-chloro-7-methyl-6-(4-(1-methyl-1H-1,2,3-triazol-4-yl)benzyl)-4-oxo-1,2,3-benzotriazin-3(4H)-yl)-2,3-dideoxy-L-threo-pentitol] | 2.9
Cc1c(Cc2ccc(-c3cn(C)nn3)cc2)cc2c(=O)n([C@H]3CCOC[C@@H]3O)cnc2c1F [Example 22, 1,5-anhydro-2,3-dideoxy-3-(8-fluoro-7-methyl-6-(4-(1-methyl-1H-1,2,3-triazol-4-yl)benzyl)-4-oxoquinazolin-3(4H)-yl)-L-threo-pentitol] | 12
Cc1nn(C)cc1-c1ccc(Cc2cc3c(=O)n([C@H]4CCOC[C@@H]4O)cnc3c(F)c2C)cn1 [Example 23, 1,5-anhydro-2,3-dideoxy-3-(6-((6-(1,3-dimethyl-1H-pyrazol-4-yl)pyridin-3-yl)methyl)-8-fluoro-7-methyl-4-oxoquinazolin-3(4H)-yl)-L-threo-pentitol] | 19
Cc1c(Cc2ccc(C(=O)NC3(C)COC3)cc2)cc2c(=O)n([C@H]3CCOC[C@@H]3O)cnc2c1C [Example 26, 1,5-anhydro-2,3-dideoxy-3-(7,8-dimethyl-6-(4-((3-methyloxetan-3-yl)carbamoyl)benzyl)-4-oxoquinazolin-3(4H)-yl)-L-threo-pentitol] | 24
CCNC(=O)c1ccc(Cc2cc3c(=O)n([C@H]4CCOC[C@@H]4O)cnc3c(C)c2C)cc1 [Example 28, 1,5-anhydro-2,3-dideoxy-3-(6-(4-(ethylcarbamoyl)benzyl)-7,8-dimethyl-4-oxoquinazolin-3 (4H)-yl)-L-threo-pentitol] | 11
Cc1c(Cc2ccc(C(=O)NCC(=O)N(C)C)cc2)cc2c(=O)n([C@H]3CCOC[C@@H]3O)cnc2c1C [Example 30, 1,5-anhydro-2,3-dideoxy-3-(6-(4-((2-(dimethylamino)-2-oxoethyl)carbamoyl)benzyl)-7,8-dimethyl-4-oxoquinazolin-3 (4H)-yl)-L-threo-pentitol] | 24
Cc1c(Cc2ccc(C(=O)NCCCF)cc2)cc2c(=O)n([C@H]3CCOC[C@@H]3O)cnc2c1C [Example 34, 1,5-anhydro-2,3-dideoxy-3-(6-(4-((3-fluoropropyl)carbamoyl)benzyl)-7,8-dimethyl-4-oxoquinazolin-3 (4H)-yl)-L-threo-pentitol] | 20
Cc1c(Cc2ccc(C(=O)NC3(C(F)F)CC3)cc2)cc2c(=O)n([C@H]3CCOC[C@@H]3O)cnc2c1C [Example 35, 1,5-anhydro-2,3-dideoxy-3-(6-(4-((1-(difluoromethyl)-cyclopropyl)carbamoyl)benzyl)-7,8-dimethyl-4-oxoquinazolin-3 (4H)-yl)-L-threo-pentitol] | 9
